Source: PMC4503722, “Novel Phenotypic Outcomes Identified for a Public Collection of Approved Drugs from a Publicly Accessible Panel of Assays” (PLoS ONE, 2015)

Assays:
[1] = tested on: nuclear β-catenin in C2C12 cells; assay: cells; format: cell-based; conditions: concentration response; for WntCondMedia_bCatenin C2C12 IC50/EC50: assay number 5
[2] = tested on: alkaline phosphatase (ALP) activity in C2C12 cells; format: cell-based; conditions: concentration response; for WntCondMedia_Alk Phos C2C12 IC50/EC50: assay number 6
[3] = tested on: HeLa cells; assay: cells; format: cell-based; conditions: for Hela CellCycMod PI 2N IC50/EC50: assay number 14; for Hela CellCycMod PI S Phase IC50/EC50: assay number 15; for Hela CellCycMod PI 4N IC50/EC50: assay number 16; for Hela CellCycMod PI MI IC50/EC50: assay number 17; for Hela CellCycMod PI Cell Number IC50/EC50: assay number 18
[4] = target: T1, hp70S6K1 (RPS6KB1) (Homo sapiens, UniProt P23443); assay: Cerep LANCE kinase assay hp70S6K1 (S1 assay 31); format: biochemical; conditions: for hp70S6K1 LANCE IC50/EC50: assay number 31
T1 construct: purchased Cerep (LANCE kinase assay platform, contract assay)

[5] = target: T2, hKDR (Homo sapiens, UniProt P35968); assay: Cerep LANCE kinase assay hKDR (S1 assay 32); format: biochemical; conditions: for hKDR LANCE IC50/EC50: assay number 32
T2 construct: purchased Cerep (LANCE kinase assay platform, contract assay)

[6] = target: T3, hJAK2 (Homo sapiens, UniProt O60674); assay: Cerep LANCE kinase assay hJAK2 (S1 assay 33); format: biochemical; conditions: for hJAK2 LANCE IC50/EC50: assay number 33
T3 construct: purchased Cerep (LANCE kinase assay platform, contract assay)

[7] = target: T4, hGSK3b (Homo sapiens, UniProt P49841); assay: Cerep LANCE kinase assay hGSK3b (S1 assay 34); format: biochemical; conditions: for hGSK3b LANCE IC50/EC50: assay number 34
T4 construct: purchased Cerep (LANCE kinase assay platform, contract assay)

[8] = target: T5, hFLT3 (Homo sapiens, UniProt P36888); assay: Cerep LANCE kinase assay hFLT3 (S1 assay 35); format: biochemical; conditions: for hFLT3 LANCE IC50/EC50: assay number 35
T5 construct: purchased Cerep (LANCE kinase assay platform, contract assay)

[9] = tested on: INS-1E cells; assay: cells; format: cell-based, rat; conditions: 5 mM glucose;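 note: secreted insulin quantified by homogeneous immunoassay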
[10] = tested on: endothelial tube formation in co-cultures of ECFCs and ADSCs treated with VEGF; assay: cells; format: cell-based, human
[11] = tested on: HCT116 cells treated with a GSK3β inhibitor; assay: cells; format: cell-based; conditions: assay number 26; GSK3b inhibitor pretreated
[12] = tested on: Colo320; assay: cells; format: cell-based; conditions: assay number 27; basal
[13] = tested on: HT-29; assay: cells; format: cell-based; conditions: assay number 28; basal
[14] = tested on: RKO; assay: cells; format: cell-based; conditions: assay number 29; basal
[15] = tested on: SNU-C1; assay: cells; format: cell-based; conditions: assay number 30; basal
[16] = tested on: ECFC/ADSC co-culture cell nuclei number

T5 sequence (P36888 27-993): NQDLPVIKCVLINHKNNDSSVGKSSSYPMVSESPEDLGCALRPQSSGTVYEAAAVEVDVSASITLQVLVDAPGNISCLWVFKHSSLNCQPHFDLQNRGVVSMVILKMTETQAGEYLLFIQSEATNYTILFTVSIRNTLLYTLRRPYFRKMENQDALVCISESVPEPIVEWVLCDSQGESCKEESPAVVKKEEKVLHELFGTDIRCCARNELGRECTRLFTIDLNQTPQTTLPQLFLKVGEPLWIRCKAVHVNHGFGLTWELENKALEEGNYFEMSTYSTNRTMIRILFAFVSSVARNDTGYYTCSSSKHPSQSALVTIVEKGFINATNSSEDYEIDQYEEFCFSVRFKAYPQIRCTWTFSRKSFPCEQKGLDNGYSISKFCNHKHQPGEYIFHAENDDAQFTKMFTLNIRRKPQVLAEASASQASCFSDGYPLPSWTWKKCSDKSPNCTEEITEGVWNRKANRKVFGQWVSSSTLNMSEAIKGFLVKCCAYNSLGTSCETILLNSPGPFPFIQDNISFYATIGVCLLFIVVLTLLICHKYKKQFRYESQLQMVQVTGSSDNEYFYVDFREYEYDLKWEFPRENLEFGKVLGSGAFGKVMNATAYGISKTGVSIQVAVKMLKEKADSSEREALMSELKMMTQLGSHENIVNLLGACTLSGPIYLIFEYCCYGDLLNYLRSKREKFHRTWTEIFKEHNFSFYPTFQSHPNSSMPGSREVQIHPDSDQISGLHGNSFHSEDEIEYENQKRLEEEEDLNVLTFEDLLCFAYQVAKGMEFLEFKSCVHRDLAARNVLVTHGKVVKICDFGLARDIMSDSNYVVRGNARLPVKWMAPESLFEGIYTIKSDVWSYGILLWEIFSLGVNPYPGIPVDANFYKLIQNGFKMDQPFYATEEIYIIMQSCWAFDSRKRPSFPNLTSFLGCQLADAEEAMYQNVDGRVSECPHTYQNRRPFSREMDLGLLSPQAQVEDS
T4 sequence (P49841 whole entry): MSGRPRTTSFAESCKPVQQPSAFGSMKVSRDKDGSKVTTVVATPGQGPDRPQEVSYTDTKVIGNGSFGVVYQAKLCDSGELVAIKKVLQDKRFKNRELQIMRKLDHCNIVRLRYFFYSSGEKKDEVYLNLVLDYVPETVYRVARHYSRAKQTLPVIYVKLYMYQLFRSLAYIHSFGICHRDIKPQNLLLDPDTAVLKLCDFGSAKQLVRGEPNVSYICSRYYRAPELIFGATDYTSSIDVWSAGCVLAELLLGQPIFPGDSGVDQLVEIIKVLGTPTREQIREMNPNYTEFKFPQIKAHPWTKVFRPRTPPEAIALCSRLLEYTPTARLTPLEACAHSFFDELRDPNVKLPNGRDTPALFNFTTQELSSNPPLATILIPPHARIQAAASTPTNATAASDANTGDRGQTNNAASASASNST
T2 sequence (P35968 20-1356): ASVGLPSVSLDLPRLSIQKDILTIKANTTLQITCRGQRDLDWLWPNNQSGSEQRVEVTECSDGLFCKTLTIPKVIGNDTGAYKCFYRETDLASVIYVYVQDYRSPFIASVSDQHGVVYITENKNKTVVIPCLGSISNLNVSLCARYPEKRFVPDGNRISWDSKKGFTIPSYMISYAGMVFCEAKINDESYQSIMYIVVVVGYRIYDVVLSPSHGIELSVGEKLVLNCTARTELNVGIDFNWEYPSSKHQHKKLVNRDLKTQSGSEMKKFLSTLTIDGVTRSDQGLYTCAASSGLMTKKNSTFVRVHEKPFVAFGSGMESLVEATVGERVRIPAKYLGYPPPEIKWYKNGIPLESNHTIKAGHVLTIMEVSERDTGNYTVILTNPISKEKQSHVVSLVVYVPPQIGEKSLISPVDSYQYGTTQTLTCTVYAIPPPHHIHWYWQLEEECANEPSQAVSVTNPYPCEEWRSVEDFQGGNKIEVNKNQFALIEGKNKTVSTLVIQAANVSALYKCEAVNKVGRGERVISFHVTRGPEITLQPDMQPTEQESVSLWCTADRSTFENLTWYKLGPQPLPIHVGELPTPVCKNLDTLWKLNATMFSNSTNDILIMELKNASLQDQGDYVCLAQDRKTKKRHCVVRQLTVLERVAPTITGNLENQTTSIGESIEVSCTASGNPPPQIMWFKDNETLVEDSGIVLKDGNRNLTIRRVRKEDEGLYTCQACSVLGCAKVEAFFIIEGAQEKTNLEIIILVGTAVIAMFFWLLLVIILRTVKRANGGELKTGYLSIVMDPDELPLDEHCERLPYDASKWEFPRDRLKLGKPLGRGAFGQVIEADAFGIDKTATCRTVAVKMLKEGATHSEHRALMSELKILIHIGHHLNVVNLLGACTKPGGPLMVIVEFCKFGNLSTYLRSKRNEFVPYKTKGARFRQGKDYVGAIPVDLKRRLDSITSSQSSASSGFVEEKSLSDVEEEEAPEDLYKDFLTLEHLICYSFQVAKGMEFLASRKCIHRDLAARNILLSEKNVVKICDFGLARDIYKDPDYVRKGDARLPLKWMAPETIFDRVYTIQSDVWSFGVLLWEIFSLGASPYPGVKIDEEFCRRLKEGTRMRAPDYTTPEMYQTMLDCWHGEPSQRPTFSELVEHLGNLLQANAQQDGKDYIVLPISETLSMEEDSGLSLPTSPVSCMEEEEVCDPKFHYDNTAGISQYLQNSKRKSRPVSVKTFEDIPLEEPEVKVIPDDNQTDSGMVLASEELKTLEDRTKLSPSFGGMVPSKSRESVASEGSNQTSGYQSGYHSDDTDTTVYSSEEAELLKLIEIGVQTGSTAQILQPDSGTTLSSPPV
T3 sequence (O60674 whole entry): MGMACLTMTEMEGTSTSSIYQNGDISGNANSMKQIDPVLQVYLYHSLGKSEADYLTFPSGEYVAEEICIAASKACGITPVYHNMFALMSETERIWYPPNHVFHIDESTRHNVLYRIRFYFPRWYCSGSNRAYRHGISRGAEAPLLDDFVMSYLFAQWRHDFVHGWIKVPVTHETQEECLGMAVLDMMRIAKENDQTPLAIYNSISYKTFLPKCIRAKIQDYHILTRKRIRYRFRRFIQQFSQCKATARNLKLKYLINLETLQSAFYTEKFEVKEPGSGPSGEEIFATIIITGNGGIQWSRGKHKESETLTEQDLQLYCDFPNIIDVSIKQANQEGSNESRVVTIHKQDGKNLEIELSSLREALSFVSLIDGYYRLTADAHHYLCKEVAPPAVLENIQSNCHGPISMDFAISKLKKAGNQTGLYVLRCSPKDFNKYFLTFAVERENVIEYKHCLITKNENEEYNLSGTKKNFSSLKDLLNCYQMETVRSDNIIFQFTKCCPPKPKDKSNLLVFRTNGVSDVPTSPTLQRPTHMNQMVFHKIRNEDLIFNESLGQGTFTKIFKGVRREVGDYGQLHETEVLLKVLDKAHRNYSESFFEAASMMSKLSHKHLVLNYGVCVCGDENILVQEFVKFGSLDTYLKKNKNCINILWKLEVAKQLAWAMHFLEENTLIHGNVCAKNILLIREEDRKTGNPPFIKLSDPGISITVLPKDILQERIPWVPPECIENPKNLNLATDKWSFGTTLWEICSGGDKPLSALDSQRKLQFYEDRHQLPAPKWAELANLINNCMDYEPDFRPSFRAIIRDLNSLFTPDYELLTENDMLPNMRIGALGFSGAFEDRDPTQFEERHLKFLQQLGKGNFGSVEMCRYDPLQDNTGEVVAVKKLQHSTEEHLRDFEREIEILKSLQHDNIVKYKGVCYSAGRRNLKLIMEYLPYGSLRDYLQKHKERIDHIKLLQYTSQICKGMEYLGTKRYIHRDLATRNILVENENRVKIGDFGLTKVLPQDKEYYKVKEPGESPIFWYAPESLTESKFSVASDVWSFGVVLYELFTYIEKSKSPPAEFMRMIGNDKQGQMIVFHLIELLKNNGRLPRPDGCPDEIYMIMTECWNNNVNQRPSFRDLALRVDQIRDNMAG
T1 sequence (P23443 whole entry): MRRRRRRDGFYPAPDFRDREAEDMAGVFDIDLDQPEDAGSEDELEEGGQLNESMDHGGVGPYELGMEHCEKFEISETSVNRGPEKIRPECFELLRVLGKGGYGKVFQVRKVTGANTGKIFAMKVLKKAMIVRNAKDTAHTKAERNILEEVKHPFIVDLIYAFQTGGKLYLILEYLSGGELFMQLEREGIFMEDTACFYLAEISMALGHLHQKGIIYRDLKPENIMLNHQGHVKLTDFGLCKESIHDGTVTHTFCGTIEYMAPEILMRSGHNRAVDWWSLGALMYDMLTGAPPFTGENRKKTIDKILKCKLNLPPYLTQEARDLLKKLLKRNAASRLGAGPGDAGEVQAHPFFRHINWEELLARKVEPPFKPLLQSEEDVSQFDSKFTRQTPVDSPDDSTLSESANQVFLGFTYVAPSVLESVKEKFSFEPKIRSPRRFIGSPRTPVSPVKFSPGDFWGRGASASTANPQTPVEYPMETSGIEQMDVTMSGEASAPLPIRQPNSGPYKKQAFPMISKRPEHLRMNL

Compound | WntCondMedia_bCatenin C2C12 IC50/EC50 [1] [µM] | WntCondMedia_Alk Phos C2C12 IC50/EC50 [2] [µM] | Hela CellCycMod PI 2N IC50/EC50 [3] [µM] | Hela CellCycMod PI S Phase IC50/EC50 [3] [µM] | Hela CellCycMod PI 4N IC50/EC50 [3] [µM] | Hela CellCycMod PI MI IC50/EC50 [3] [µM] | Hela CellCycMod PI Cell Number IC50/EC50 [3] [µM] | hp70S6K1 LANCE IC50/EC50 [4] [µM] | hKDR LANCE IC50/EC50 [5] [µM] | hJAK2 LANCE IC50/EC50 [6] [µM] | hGSK3b LANCE IC50/EC50 [7] [µM] | hFLT3 LANCE IC50/EC50 [8] [µM] | IC50/EC50, WntCondMedia_bCatenin C2C12 (assay number 5) [1] [µM] | IC50/EC50, WntCondMedia_Alk Phos C2C12 (assay number 6) [2] [µM] | IC50/EC50, Hela CellCycMod PI 2N (assay number 14) [3] [µM] | IC50/EC50, Hela CellCycMod PI 4N (assay number 16) [3] [µM] | IC50/EC50, Hela CellCycMod PI Cell Number (assay number 18) [3] [µM] | IC50/EC50, Hela CellCycMod PI MI (assay number 17) [3] [µM] | IC50/EC50, Hela CellCycMod PI S Phase (assay number 15) [3] [µM] | IC50/EC50, hp70S6K1 LANCE (assay number 31) [4] [µM] | also measured
COC(=O)[C@H]1[C@H]2C[C@@H]3c4[nH]c5cc(OC)ccc5c4CCN3C[C@H]2C[C@@H](OC(=O)/C=C/c2ccc(O)c(OC)c2)[C@@H]1OC [NCGC00253604-01] | > 20 | 10.4461 | > 10 | > 10 | > 10 | > 10 | > 10 | > 20 | > 20 | > 20 | > 20 | > 20 | – | – | – | – | – | – | – | – | –
C[n+]1c2cc(N)ccc2cc2ccc(N)cc21 [NCGC00178831-03] | – | – | – | – | – | – | – | – | – | – | – | – | > 20 | 1.5999 | 3.3946 | > 10 | 0.4722 | 2.194 | 1.9618 | 6.57 | IC50/EC50, hKDR LANCE (assay number 32) [5]: > 20 µM; IC50/EC50, hJAK2 LANCE (assay number 33) [6]: > 20 µM; IC50/EC50, hGSK3b LANCE (assay number 34) [7]: > 20 µM; IC50/EC50, hFLT3 LANCE (assay number 35) [8]: > 20 µM
CN1C[C@H](CNC(=O)OCc2ccccc2)C[C@@H]2c3cccc4c3c(cn4C)C[C@H]21 [NCGC00017257-14] | – | – | – | – | – | – | – | – | – | – | – | – | > 20 | > 20 | – | – | – | – | – | – | IC50/EC50, 5mMGluc_INS1E SecretionMod (assay number 8) [9]: > 33.33 µM
CCCN(CCC)C(=O)C(CCC(=O)OCCCN1CCN(CCOC(=O)Cc2c(C)n(C(=O)c3ccc(Cl)cc3)c3ccc(OC)cc23)CC1)NC(=O)c1ccccc1 (stereo not shown) [NCGC00183024-01] | > 20 | 13.2162 | > 10 | – | > 10 | > 10 | 5.4844 | > 20 | > 20 | > 20 | > 20 | > 20 | – | – | – | – | – | – | – | – | –
CCc1nc(N)nc(N)c1-c1ccc(Cl)cc1 [NCGC00016256-17] | – | – | – | – | – | – | – | – | – | – | – | – | 0.86 | 0.0677 | > 10 | > 10 | > 10 | > 10 | > 10 | > 20 | IC50/EC50, hKDR LANCE (assay number 32) [5]: > 20 µM; IC50/EC50, hJAK2 LANCE (assay number 33) [6]: > 20 µM; IC50/EC50, hGSK3b LANCE (assay number 34) [7]: > 20 µM; IC50/EC50, hFLT3 LANCE (assay number 35) [8]: > 20 µM
CC[C@]1(O)C[C@@H]2CN(CCc3c([nH]c4ccccc34)[C@@](C(=O)OC)(c3cc4c(cc3OC)N(C)[C@H]3[C@@](O)(C(=O)OC)[C@H](OC(C)=O)[C@]5(CC)C=CCN6CC[C@]43[C@@H]65)C2)C1.O=S(=O)(O)O [NCGC00344583-01] | 0.0035 | > 20 | 0.0048 | > 10 | 0.00483 | 0.00452 | 0.00521 | – | – | – | – | – | – | – | – | – | – | – | – | – | VEGF_ADSC\ECFC Angio CD31 TubeArea IC50/EC50 [10]: 0.0026 µM; GSK3b inh pretreated_Viability ATP HCT116 IC50/EC50 [11]: 0.001 µM; Basal_Viability ATP Colo 320 IC50/EC50 [12]: 0.001 µM; Basal_Viability ATP HT-29 IC50/EC50 [13]: 0.001 µM; Basal_Viability ATP RKO IC50/EC50 [14]: 0.001 µM; Basal_Viability ATP SNU-C1 IC50/EC50 [15]: 0.001 µM; VEGF_ADSC\ECFC Angio Hoechst NucArea IC50/EC50 [16]: > 10 µM
